Measured values published in ChEMBL document CHEMBL5233249, “Recent advancements in the development of heterocyclic anti-inflammatory agents” (Eur J Med Chem, 2020).
Values belong to the molecule of their own block, whether it stands above or below them.

Tests used:
[1] = system: Rattus norvegicus; assay: Anti-inflammatory activity in Carrageenan-induced paw edema in Wistar albino rat assessed as inhibition of edema measured after 3 hrs relative to control; format: functional
[2] = system: Rattus norvegicus; assay: Anti-ulcerative activity in aspirin induced Wistar rat ulcer model assessed as inhibition of ulcer index at 20 mg/kg,po; format: functional
[3] = Selectivity index, ratio of IC50 for ovine COX1 to IC50 for recombinant human COX2
[4] = system: Rattus norvegicus; assay: Anti-inflammatory activity against Carrageenan-induced paw edema in Wistar albino rat ulcerogenic activity assessed as reduction in severity index; format: functional
[5] = system: Rattus norvegicus; assay: Anti-inflammatory activity in Carrageenan-induced paw edema in Wistar albino rat assessed as inhibition of paw edema measured after 3 hr relative to control; format: functional
[6] = system: Rattus norvegicus; assay: Anti-inflammatory activity in Carrageenan-induced paw edema in Wistar albino rat assessed as inhibition of paw edema measured after 2 hr relative to control; format: functional
[7] = system: Rattus norvegicus; assay: Anti-inflammatory activity in Carrageenan-induced paw edema in Wistar albino rat assessed as inhibition of paw edema measured after 1 hr relative to control; format: functional
[8] = system: Rattus norvegicus; assay: Anti-inflammatory activity in Carrageenan-induced paw edema in Wistar albino rat assessed as reduction in paw edema measured after 3 hr relative to control; format: functional; design: scale not given: the % may be the effect or the level left
[9] = system: Rattus norvegicus; assay: Anti-inflammatory activity in Carrageenan-induced paw edema in Wistar albino rat assessed as reduction in paw edema measured after 1 hr relative to control; format: functional; design: scale not given: the % may be the effect or the level left
[10] = system: Rattus norvegicus; assay: Anti-inflammatory activity in Carrageenan-induced paw edema in Wistar albino rat assessed as reduction in paw edema measured after 2 hr relative to control; format: functional; design: scale not given: the % may be the effect or the level left
[11] = system: Rattus norvegicus; assay: Anti-inflammatory activity in Carrageenan-induced paw edema in PO dosed rat model at 10 mg/kg assessed as inhibition of paw edema measured after 4 hrs relative to control; format: functional
[12] = system: Rattus norvegicus; assay: Anti-inflammatory activity in Carrageenan-induced paw edema in PO dosed rat model at 20 mg/kg assessed as inhibition of paw edema measured after 4 hrs relative to control; format: functional
[13] = biological target: T1, Prostaglandin G/H synthase 1 (Ovis aries, UniProt P05979); assay: Inhibition of ovine COX-1 by EIA method
T1 sequence (P05979 whole entry): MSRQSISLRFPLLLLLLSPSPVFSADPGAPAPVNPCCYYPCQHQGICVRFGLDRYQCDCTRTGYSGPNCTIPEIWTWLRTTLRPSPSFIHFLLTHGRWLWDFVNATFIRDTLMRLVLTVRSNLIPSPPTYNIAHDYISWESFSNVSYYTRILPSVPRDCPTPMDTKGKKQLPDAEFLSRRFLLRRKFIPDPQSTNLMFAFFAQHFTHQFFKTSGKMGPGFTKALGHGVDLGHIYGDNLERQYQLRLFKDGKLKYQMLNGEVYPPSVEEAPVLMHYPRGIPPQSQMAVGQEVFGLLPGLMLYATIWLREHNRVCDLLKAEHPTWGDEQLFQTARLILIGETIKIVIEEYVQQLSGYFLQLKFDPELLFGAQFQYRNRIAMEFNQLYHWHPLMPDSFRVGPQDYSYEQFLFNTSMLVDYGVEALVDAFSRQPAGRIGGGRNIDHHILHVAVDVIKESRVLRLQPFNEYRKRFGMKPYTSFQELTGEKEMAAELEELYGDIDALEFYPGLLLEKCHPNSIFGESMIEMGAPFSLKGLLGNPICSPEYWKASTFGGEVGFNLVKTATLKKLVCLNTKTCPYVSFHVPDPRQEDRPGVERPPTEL

[14] = system: Rattus norvegicus; assay: Anti-inflammatory activity in Carageenan-induced foot paw edema in Sprague-Dawley rat at 50 mg/kg assessed as reduction in paw edema volume relative to control; format: functional; design: scale not given: the % may be the effect or the level left
[15] = Inhibition of MAPK p38 (unknown origin); design: species or system Homo sapiens
[16] = Anti-inflammatory activity assessed as protein denaturation using bovine serum albumin relative to control; format: functional
[17] = system: Rattus norvegicus; assay: Anti-inflammatory activity in Carrageenan-induced rat paw edema in Wistar rat assessed as reduction in inhibition of edema measured after 4 hrs relative to control; format: functional; design: scale not given: the % may be the effect or the level left
[18] = system: Rattus norvegicus; assay: Anti-inflammatory activity in Carrageenan-induced paw edema in PO dosed Swiss albino rat model at 10 mg/kg assessed as inhibition in volume of edema measured after 1 hrs relative to control; format: functional
[19] = system: Rattus norvegicus; assay: Anti-inflammatory activity in Carrageenan-induced paw edema in Wistar rat assessed as inhibition of paw edema; format: functional
[20] = system: Rattus norvegicus; assay: Anti-inflammatory activity in Carrageenan-induced rat paw edema in Wistar rat assessed as increase in paw edema volume at 1 hr relative to control; format: functional
[21] = system: Rattus norvegicus; assay: Anti-inflammatory activity in Carrageenan-induced rat paw edema in Wistar rat assessed as increase in paw edema volume at 2 hr relative to control; format: functional
[22] = system: Rattus norvegicus; assay: Anti-inflammatory activity in Carrageenan-induced rat paw edema in Wistar rat assessed as increase in paw edema volume at 4 hr relative to control; format: functional
[23] = system: Rattus norvegicus; assay: Anti-inflammatory activity in Carrageenan-induced rat paw edema in Wistar rat assessed as increase in paw edema volume at 1 hr; format: functional
[24] = system: Rattus norvegicus; assay: Anti-inflammatory activity in Carrageenan-induced rat paw edema in Wistar rat assessed as increase in paw edema volume at 4 hr; format: functional
[25] = biological target: Prostaglandin G/H synthase 1 (Homo sapiens, UniProt P23219); assay: Inhibition of COX-1 (unknown origin) at 40 uM relative to control
[26] = system: Rattus norvegicus; assay: Anti-inflammatory activity in Carrageenan-induced rat paw edema in Wistar rat assessed as increase in paw edema volume (reference value: 1.66 +/- 0.01); format: functional
[27] = system: Rattus norvegicus; assay: Anti-inflammatory activity in Carrageenan-induced rat paw edema in Wistar rat assessed as increase in paw edema volume relative to control; format: functional
[28] = system: Rattus norvegicus; assay: Anti-inflammatory activity in Carrageenan-induced rat paw edema in Wistar rat assessed as increase in paw edema volume at 2 hr; format: functional
[29] = system: Rattus norvegicus; assay: Anti-inflammatory activity in Carrageenan-induced paw edema in Swiss albino rat assessed as inhibition relative to control; format: functional
[30] = system: Mus musculus; assay: Anti-inflammatory activity in Carrageenan-induced paw edema in PO dosed mouse at 100 mg/kg assessed as inhibition of edema measured after 3 hr relative to control; format: functional; design: scale not given: the % may be the effect or the level left
[31] = system: RAW264.7; assay: Anti-inflammatory activity in mouse RAW264.7 cells assessed as LPS-induced reduction in NO production measured after 24 hrs; format: functional, cell-based; settings: RAW264.7, 24 h

Chain of Prostaglandin G/H synthase 1 (Homo sapiens, UniProt P23219) (P23219 whole entry): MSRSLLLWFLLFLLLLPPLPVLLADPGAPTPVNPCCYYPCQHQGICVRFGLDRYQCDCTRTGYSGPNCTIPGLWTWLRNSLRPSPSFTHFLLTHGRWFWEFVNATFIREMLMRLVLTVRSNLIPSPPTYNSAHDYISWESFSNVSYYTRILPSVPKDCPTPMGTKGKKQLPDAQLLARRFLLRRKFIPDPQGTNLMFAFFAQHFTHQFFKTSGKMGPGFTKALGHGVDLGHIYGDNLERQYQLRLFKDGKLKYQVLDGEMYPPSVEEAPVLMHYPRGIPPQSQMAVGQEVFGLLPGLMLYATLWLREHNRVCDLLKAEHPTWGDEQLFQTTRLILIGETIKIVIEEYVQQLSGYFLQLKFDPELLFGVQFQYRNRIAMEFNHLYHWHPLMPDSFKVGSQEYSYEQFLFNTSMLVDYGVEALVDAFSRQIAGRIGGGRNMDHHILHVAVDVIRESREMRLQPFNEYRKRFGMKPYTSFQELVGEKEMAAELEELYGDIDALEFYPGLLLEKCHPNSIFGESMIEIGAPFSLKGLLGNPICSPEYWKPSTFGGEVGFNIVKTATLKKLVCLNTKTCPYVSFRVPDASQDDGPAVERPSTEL

- Selectivity Index [3]: 65.7
SMILES: CCc1c(-c2ccccc2)n(C(=O)c2ccc(F)cc2)c2ccc(S(C)(=O)=O)cc12
- inhibition (INH) [1]: 90.5%
- UI [2]: 7.3

SMILES: Cc1ccccc1-c1nnc(Cn2c(CN3CCOCC3)nc3ccccc32)o1
- Activity [4]: 0.32 mm
- inhibition (INH) [5]: 31.25%
- inhibition (INH) [6]: 68.31%
- inhibition (INH) [7]: 62.29%

SMILES: Clc1ccccc1-c1nnc(Cn2c(CN3CCOCC3)nc3ccccc32)o1
- Activity [4]: 0.28 mm
- Activity [8]: 74.17%
- Activity [9]: 38.54%
- Activity [10]: 67.12%

SMILES: Cc1nn(-c2ccccc2)c2c1C(c1ccc([N+](=O)[O-])cc1)N1C=CC=NC1=N2 (centres undefined)
- inhibition in vivo at 10 mg/kg [11]: 73%
- inhibition in vivo at 20 mg/kg [12]: 80%

- IC50 [13]: 75 nM
SMILES: O=C(NNC(=S)NCc1ccccc1)c1ccc(C2=CN3c4ccccc4NC3S2)nc1 (centres undefined)
- Activity [14]: 75.9%

- IC50 [15]: 38 nM
SMILES: COc1ccc(NC(=O)c2ccc(Nc3ncnc4c3cnn4-c3ccccc3)cc2)cc1
- Activity [16]: 80.2%
- Activity [17]: 76.35%

SMILES: Cc1c(-c2ccccc2)n(C(=O)c2ccc(Cl)cc2)c2ccc(S(C)(=O)=O)cc12
- inhibition in vivo at 10 mg/kg [18]: 73.5%

- IC50 [13]: 19500 nM
- inhibition [25]: 86%
SMILES: CCCOC(=O)c1nc2c(cnn2-c2ccccc2)c(=O)[nH]1
- ED50 [19]: 8.3 mg/kg
- inhibition (INH) [20]: 40%
- inhibition (INH) [21]: 51%
- inhibition (INH) [22]: 55%
- Activity [23]: 1.66 mL
- Activity [24]: 2.11 mL
- Activity [26]: 0.9 mL
- inhibition (INH) [27]: 40%
- Activity [28]: 1.8 mL
- inhibition (INH) [29]: 36%

- IC50 [25]: 2500 nM
SMILES: COc1ccc(NCc2nc3ccccc3n2C(=O)c2ccccc2)cc1
- Activity [30]: 40.3%

- IC50 [31]: 6700 nM
SMILES: COc1ccc(C(=O)c2nc3ccccc3cc2-c2cc(OC)c(OC)c(OC)c2)cc1
